Laboratory results taken from the NIST ThermoML archive (doi:10.1016/j.jct.2015.08.014).
± gives the expanded uncertainty stated by the source.

Test: xn = mol fraction of the nth substance listed
Details: 100 kPa, Liquid; for electrical conductivity: Alternating current cell with electrodes; for mass density: Vibrating tube method; for viscosity: Capillary tube (Ostwald / Ubbelohde) method

CCCC[N+]1(C)CCCC1.N#CN=C=[N-] [1-butyl-1-methylpyrrolidinium dicyanamide] + O=C1CCCO1
electrical conductivity (283.15 K, Frequency=0.008 MHz, x1 = 0.0463): 1.17 ± 0.02 S/m
electrical conductivity (283.15 K, Frequency=0.008 MHz, x1 = 0.0987): 1.73 ± 0.021 S/m
electrical conductivity (283.15 K, Frequency=0.008 MHz, x1 = 0.1449): 1.93 ± 0.02 S/m
electrical conductivity (283.15 K, Frequency=0.008 MHz, x1 = 0.1859): 2.028 ± 0.02 S/m
electrical conductivity (283.15 K, Frequency=0.008 MHz, x1 = 0.2493): 1.926 ± 0.019 S/m
electrical conductivity (283.15 K, Frequency=0.008 MHz, x1 = 0.3029): 1.84 ± 0.019 S/m
electrical conductivity (283.15 K, Frequency=0.008 MHz, x1 = 0.3845): 1.66 ± 0.017 S/m
electrical conductivity (283.15 K, Frequency=0.008 MHz, x1 = 0.4985): 1.407 ± 0.014 S/m
electrical conductivity (283.15 K, Frequency=0.008 MHz, x1 = 0.6954): 1.07 ± 0.01 S/m
electrical conductivity (283.15 K, Frequency=0.008 MHz, x1 = 0.9013): 0.849 ± 0.009 S/m
electrical conductivity (283.15 K, Frequency=0.008 MHz, x1 = 1): 0.786 ± 0.008 S/m
electrical conductivity (283.15 K, Frequency=0.00857143 MHz, x1 = 0.0463): 1.17 ± 0.02 S/m
electrical conductivity (283.15 K, Frequency=0.00857143 MHz, x1 = 0.0987): 1.73 ± 0.021 S/m
electrical conductivity (283.15 K, Frequency=0.00857143 MHz, x1 = 0.1449): 1.93 ± 0.02 S/m
electrical conductivity (283.15 K, Frequency=0.00857143 MHz, x1 = 0.1859): 2.028 ± 0.02 S/m
electrical conductivity (283.15 K, Frequency=0.00857143 MHz, x1 = 0.2493): 1.926 ± 0.019 S/m
electrical conductivity (283.15 K, Frequency=0.00857143 MHz, x1 = 0.3029): 1.84 ± 0.019 S/m
electrical conductivity (283.15 K, Frequency=0.00857143 MHz, x1 = 0.3845): 1.66 ± 0.017 S/m
electrical conductivity (283.15 K, Frequency=0.00857143 MHz, x1 = 0.4985): 1.407 ± 0.014 S/m
electrical conductivity (283.15 K, Frequency=0.00857143 MHz, x1 = 0.6954): 1.07 ± 0.01 S/m
electrical conductivity (283.15 K, Frequency=0.00857143 MHz, x1 = 0.9013): 0.849 ± 0.009 S/m
electrical conductivity (283.15 K, Frequency=0.00857143 MHz, x1 = 1): 0.786 ± 0.008 S/m
electrical conductivity (283.15 K, Frequency=0.00892857 MHz, x1 = 0.0463): 1.17 ± 0.02 S/m
electrical conductivity (283.15 K, Frequency=0.00892857 MHz, x1 = 0.0987): 1.73 ± 0.021 S/m
electrical conductivity (283.15 K, Frequency=0.00892857 MHz, x1 = 0.1449): 1.93 ± 0.02 S/m
electrical conductivity (283.15 K, Frequency=0.00892857 MHz, x1 = 0.1859): 2.028 ± 0.02 S/m
electrical conductivity (283.15 K, Frequency=0.00892857 MHz, x1 = 0.2493): 1.926 ± 0.019 S/m
electrical conductivity (283.15 K, Frequency=0.00892857 MHz, x1 = 0.3029): 1.84 ± 0.019 S/m
electrical conductivity (283.15 K, Frequency=0.00892857 MHz, x1 = 0.3845): 1.66 ± 0.017 S/m
electrical conductivity (283.15 K, Frequency=0.00892857 MHz, x1 = 0.4985): 1.407 ± 0.014 S/m
electrical conductivity (283.15 K, Frequency=0.00892857 MHz, x1 = 0.6954): 1.07 ± 0.01 S/m
electrical conductivity (283.15 K, Frequency=0.00892857 MHz, x1 = 0.9013): 0.849 ± 0.009 S/m
electrical conductivity (283.15 K, Frequency=0.00892857 MHz, x1 = 1): 0.786 ± 0.008 S/m
electrical conductivity (283.15 K, Frequency=0.00961538 MHz, x1 = 0.0463): 1.17 ± 0.02 S/m
electrical conductivity (283.15 K, Frequency=0.00961538 MHz, x1 = 0.0987): 1.73 ± 0.021 S/m
electrical conductivity (283.15 K, Frequency=0.00961538 MHz, x1 = 0.1449): 1.93 ± 0.02 S/m
electrical conductivity (283.15 K, Frequency=0.00961538 MHz, x1 = 0.1859): 2.028 ± 0.02 S/m
electrical conductivity (283.15 K, Frequency=0.00961538 MHz, x1 = 0.2493): 1.927 ± 0.019 S/m
electrical conductivity (283.15 K, Frequency=0.00961538 MHz, x1 = 0.3029): 1.84 ± 0.019 S/m
electrical conductivity (283.15 K, Frequency=0.00961538 MHz, x1 = 0.3845): 1.66 ± 0.017 S/m
electrical conductivity (283.15 K, Frequency=0.00961538 MHz, x1 = 0.4985): 1.407 ± 0.014 S/m
electrical conductivity (283.15 K, Frequency=0.00961538 MHz, x1 = 0.6954): 1.07 ± 0.01 S/m
electrical conductivity (283.15 K, Frequency=0.00961538 MHz, x1 = 0.9013): 0.849 ± 0.009 S/m
electrical conductivity (283.15 K, Frequency=0.00961538 MHz, x1 = 1): 0.786 ± 0.008 S/m
electrical conductivity (283.15 K, Frequency=0.01 MHz, x1 = 0.0463): 1.17 ± 0.02 S/m
electrical conductivity (283.15 K, Frequency=0.01 MHz, x1 = 0.0987): 1.73 ± 0.021 S/m
electrical conductivity (283.15 K, Frequency=0.01 MHz, x1 = 0.1449): 1.93 ± 0.02 S/m
electrical conductivity (283.15 K, Frequency=0.01 MHz, x1 = 0.1859): 2.028 ± 0.02 S/m
electrical conductivity (283.15 K, Frequency=0.01 MHz, x1 = 0.2493): 1.927 ± 0.019 S/m
electrical conductivity (283.15 K, Frequency=0.01 MHz, x1 = 0.3029): 1.84 ± 0.019 S/m
electrical conductivity (283.15 K, Frequency=0.01 MHz, x1 = 0.3845): 1.66 ± 0.017 S/m
electrical conductivity (283.15 K, Frequency=0.01 MHz, x1 = 0.4985): 1.407 ± 0.014 S/m
electrical conductivity (283.15 K, Frequency=0.01 MHz, x1 = 0.6954): 1.07 ± 0.01 S/m
electrical conductivity (283.15 K, Frequency=0.01 MHz, x1 = 0.9013): 0.849 ± 0.009 S/m
electrical conductivity (283.15 K, Frequency=0.01 MHz, x1 = 1): 0.786 ± 0.008 S/m
mass density (283.15 K, x1 = 0.0987): 1116.14 ± 8.9 kg/m3
mass density (283.15 K, x1 = 0.1859): 1099.19 ± 8.8 kg/m3
mass density (283.15 K, x1 = 0.3029): 1080.61 ± 8.7 kg/m3
mass density (283.15 K, x1 = 0.4985): 1057.34 ± 8.5 kg/m3
mass density (283.15 K, x1 = 0.6954): 1040.35 ± 8.3 kg/m3
mass density (283.15 K, x1 = 0.9013): 1027.12 ± 8.3 kg/m3
mass density (283.15 K, x1 = 1): 1021.96 ± 8.2 kg/m3
electrical conductivity (293.15 K, x1 = 0.0463): 1.37 ± 0.024 S/m
electrical conductivity (293.15 K, x1 = 0.0987): 2.05 ± 0.025 S/m
electrical conductivity (293.15 K, x1 = 0.1449): 2.31 ± 0.024 S/m
electrical conductivity (293.15 K, x1 = 0.1859): 2.45 ± 0.025 S/m
electrical conductivity (293.15 K, x1 = 0.2493): 2.37 ± 0.024 S/m
electrical conductivity (293.15 K, x1 = 0.3029): 2.29 ± 0.023 S/m
electrical conductivity (293.15 K, x1 = 0.3845): 2.116 ± 0.021 S/m
electrical conductivity (293.15 K, x1 = 0.4985): 1.84 ± 0.019 S/m
electrical conductivity (293.15 K, x1 = 0.6954): 1.46 ± 0.015 S/m
electrical conductivity (293.15 K, x1 = 0.9013): 1.19 ± 0.012 S/m
electrical conductivity (293.15 K, x1 = 1): 1.123 ± 0.011 S/m
viscosity (293.15 K, x1 = 0.0987): 3.07 ± 0.07 mPa·s
viscosity (293.15 K, x1 = 0.1859): 4.46 ± 0.1 mPa·s
viscosity (293.15 K, x1 = 0.3029): 6.96 ± 0.16 mPa·s
viscosity (293.15 K, x1 = 0.4985): 13.06 ± 0.29 mPa·s
viscosity (293.15 K, x1 = 0.6954): 21.74 ± 0.49 mPa·s
viscosity (293.15 K, x1 = 0.9013): 33.58 ± 0.76 mPa·s
viscosity (293.15 K, x1 = 1): 40.25 ± 0.91 mPa·s
electrical conductivity (293.15 K, Frequency=0.0005 MHz, x1 = 0.0463): 1.36 ± 0.024 S/m
electrical conductivity (293.15 K, Frequency=0.0005 MHz, x1 = 0.0987): 2.03 ± 0.025 S/m
electrical conductivity (293.15 K, Frequency=0.0005 MHz, x1 = 0.1449): 2.31 ± 0.024 S/m
electrical conductivity (293.15 K, Frequency=0.0005 MHz, x1 = 0.1859): 2.426 ± 0.024 S/m
electrical conductivity (293.15 K, Frequency=0.0005 MHz, x1 = 0.2493): 2.37 ± 0.024 S/m
electrical conductivity (293.15 K, Frequency=0.0005 MHz, x1 = 0.3029): 2.28 ± 0.023 S/m
electrical conductivity (293.15 K, Frequency=0.0005 MHz, x1 = 0.3845): 2.108 ± 0.021 S/m
electrical conductivity (293.15 K, Frequency=0.0005 MHz, x1 = 0.4985): 1.84 ± 0.019 S/m
electrical conductivity (293.15 K, Frequency=0.0005 MHz, x1 = 0.6954): 1.45 ± 0.015 S/m
electrical conductivity (293.15 K, Frequency=0.0005 MHz, x1 = 0.9013): 1.19 ± 0.012 S/m
electrical conductivity (293.15 K, Frequency=0.0005 MHz, x1 = 1): 1.122 ± 0.011 S/m
electrical conductivity (293.15 K, Frequency=0.001 MHz, x1 = 0.0463): 1.36 ± 0.024 S/m
electrical conductivity (293.15 K, Frequency=0.001 MHz, x1 = 0.0987): 2.04 ± 0.025 S/m
electrical conductivity (293.15 K, Frequency=0.001 MHz, x1 = 0.1449): 2.31 ± 0.024 S/m
electrical conductivity (293.15 K, Frequency=0.001 MHz, x1 = 0.1859): 2.435 ± 0.024 S/m
electrical conductivity (293.15 K, Frequency=0.001 MHz, x1 = 0.2493): 2.37 ± 0.024 S/m
electrical conductivity (293.15 K, Frequency=0.001 MHz, x1 = 0.3029): 2.29 ± 0.023 S/m
electrical conductivity (293.15 K, Frequency=0.001 MHz, x1 = 0.3845): 2.111 ± 0.021 S/m
electrical conductivity (293.15 K, Frequency=0.001 MHz, x1 = 0.4985): 1.84 ± 0.019 S/m
electrical conductivity (293.15 K, Frequency=0.001 MHz, x1 = 0.6954): 1.46 ± 0.015 S/m
electrical conductivity (293.15 K, Frequency=0.001 MHz, x1 = 0.9013): 1.19 ± 0.012 S/m
electrical conductivity (293.15 K, Frequency=0.001 MHz, x1 = 1): 1.122 ± 0.011 S/m
electrical conductivity (293.15 K, Frequency=0.0015 MHz, x1 = 0.0463): 1.37 ± 0.024 S/m
electrical conductivity (293.15 K, Frequency=0.0015 MHz, x1 = 0.0987): 2.04 ± 0.025 S/m
electrical conductivity (293.15 K, Frequency=0.0015 MHz, x1 = 0.1449): 2.31 ± 0.024 S/m
electrical conductivity (293.15 K, Frequency=0.0015 MHz, x1 = 0.1859): 2.44 ± 0.024 S/m
electrical conductivity (293.15 K, Frequency=0.0015 MHz, x1 = 0.2493): 2.37 ± 0.024 S/m
